# Measured values published in patent publication US5124319A, “Benzimidazole phosphono-amino acids” (American Home Products Corporation, priority 1991, dated 1992).
# Where a name gives a salt, the structure may show the parent alone. Read-outs that look alike come from different tables or passages of the source.
# Columns and labels:
# NMDA receptor = experiment: [3H]CPP binding assay (displacement of tritiated CPP in rat frontal cortex homogenates); conditions: [3H]CPP 8 nM, 23° C., 15 min, pH 7.6
# Procedure: The compounds of the invention are tested for their NMDA competitive antagonist activity by their ability to displace tritiated 3-(2-carboxypiperazine-4-yl)propyl-1-phosphonic acid (CPP), a known competitive NMDA antagonist, in rat frontal cortex homogenates in the in vitro [^3 H]CPP binding assay.
# Rats are decapitated and their brains are immediately removed, weighed and placed in approximately 15 volumes of ice cold 10% sucrose. Each brain is homogenized using a Potter Elvehjem glass homogenizer (12 strokes at 840 rpm) equipped with a Teflon pestle. The homogenate is then centrifuged at 1,000×g. for 10 minutes. The resulting pellet is discarded and the supernatant is centrifuged at 20,000×g. for 20 minutes. The crude mitochondrial pellet is resuspended in ice cold distilled water and dispersed using a Brinkmann Polytron (PT-10 at setting of 6 for 30 seconds). The suspension is centrifuged at 8,000×g. for 20 minutes. The resulting supernatant and buffy coat is centrifuged at 48,000×g.for 20 minutes. The final crude synaptic membrane pellet is resuspended in ice cold distilled water and centrifuged at 48,000×g. for 20 minutes.
# To facilitate removal of endogenous glutamate, the membranes are resuspended in 15 volumes of ice cold 50 mMolar TRIS (pH 7.6) containing 0.04% Triton X-100. The suspension is incubated at 37° C. for 15 minutes, and then centrifuged at 20,000×g. for 20 minutes. The pellet is washed (i.e., resuspended in ice cold TRIS buffer and centrifuged at 20,000×g. for 20 minutes) twice. The membrane pellet is finally resuspended in 15 volumes ice cold 50 mMolar TRIS, distributed to several centrifuge tubes and centrifuged at 20,000×g. for 20 minutes and the pellets are frozen (-70° C.) for subsequent use in binding assays.
# For the binding assay, the membrane pellets are thawed and resuspended in 15 volumes ice cold 50 mMolar TRIS (pH 7.6) buffer. Triplicate samples (1000 μl) of the membrane suspension containing between 0.2 and 0.4 mg protein/ml are incubated at 23° C. for 15 minutes with 8 nM [^3 H]CPP (New England Nuclear), one of various test solutions, and buffer in a final incubation volume of 2 ml using plastic minivials (Skatron). The samples are then centrifuged at 48,000×g. for 20 minutes and the supernatants discarded. The pellets are digested with tissue solubilizer (NCS, Amersham; 500 μl/sample) for 1 hour. Hydrochloric acid (100 μl of 4N) is added to each sample to reduce chemiluminescence during subsequent counting. Scintillation cocktail (Aqasol, DuPont; 3.2 ml) is added to each of the minivials which are then capped and shaken for 15 minutes prior to counting. The vials are placed into a Packard 460 CD (or equivalent) counter for determination of radioactivity.
# Total specific binding is defined as total binding less the binding in the presence of 1 mMolar NMDA. Specific binding in the presence of a test drug is expressed as a percent of total specific binding when no drug is present. When test compounds are examined for a dose-response relationship, the results are then plotted as the logit of % binding vs. the log of the test drug concentration. Linear regression analysis then yields a straight line from which an IC50 with 95% confidence limits can be calculated.
# NMDA-induced convulsions = experiment: murine NMDA-induced convulsion assay (survival); format: in vivo, mice (male Swiss-albino, CD-1 strain); conditions: for ED50: Mus musculus, ip, 0.5 h
# Procedure: The compounds of the invention are further tested for their in vivo ability to antagonize NMDA in the murine NMDA-induced convulsion assay.
# Male Swiss-albino mice (CD-1 strain, Charles River) 18-22 grams in weight, after 18 hours of food deprivation, are habituated to an observation chamber for 30 minutes. The mice are pretreated with the representative test compound followed thirty minutes later with NMDA, 195 mg/kg, i.p., which is a dose normally causing 90% mortality resulting from motor seizures including uncontrollable hind leg scratching or limbs and/or torso muscle jerking with loss of righting reflex followed by death within the 30 minute observation period after NMDA administration. From the latter, the ED50 for survival is determined.
# Data analyzed using the probit analysis program PS-NONLIN (Natural Response Rate Version). The output of this program contains the statistical significance of the slope of the dose-response and the ED 50% and 95% confidence limits for survival.
# [1] = standard compounds, read-out: IC50 ± S.E.M.
# [2] = reference compounds, i.p., 30 min before NMDA 195 mg/kg i.p., 95% confidence interval, read-out: ED50 % for survival
# [3] = compounds of the invention, read-out: IC50
# [4] = compounds of the invention, i.p., 30 min before NMDA 195 mg/kg i.p., read-out: ED50 (survival)
structure (smiles),measurement,setting,value
"NC(CCCCCP(=O)(O)O)C(=O)O (centres unmarked) [AP7, reference compound]",IC50,NMDA receptor; [1],639 ± 129 nM
"O=C(O)C1CN(CCCP(=O)(O)O)CCN1 (centres unmarked) [CPP, 3-(2-carboxypiperazine-4-yl)propyl-1-phosphonic acid, reference compound]",ED50,NMDA-induced convulsions; [2],1.04 mg/kg
"CN1C(=O)CN=C(c2ccccc2)c2cc(Cl)ccc21 [Diazepam, reference compound]",ED50,NMDA-induced convulsions; [2],1.91 mg/kg
"Cl.Cl.N[C@H](Cc1nc2ccccc2n1CP(=O)(O)O)C(=O)O.O.O [Example 1, R-α-Amino-1-(phosphonomethyl)-1H-benzimidazole-2-propanoic acid, dihydrochloride, dihydrate]",IC50,NMDA receptor; [3],59 nM
same,ED50,NMDA-induced convulsions; read-out: ED50 (survival),2 mg/kg
"Cl.Cl.N[C@H](Cc1nc2cc(Cl)c(Cl)cc2n1CP(=O)(O)O)C(=O)O [Example 2, R-α-Amino-5,6-dichloro-1-(phosphonomethyl)-1H-benzimidazole-2-propanoic acid, dihydrochloride]",IC50,NMDA receptor; [3],18.2 nM
same,ED50,NMDA-induced convulsions; read-out: ED50 (survival),2.7 mg/kg
"Cc1cc2nc(C[C@@H](N)C(=O)O)n(CP(=O)(O)O)c2cc1C.Cl.Cl [Example 3, R-α-Amino-5,6-dimethyl-1-(phosphonomethyl)-1H-benzimidazole-2-propanoic acid, dihydrochloride]",IC50,NMDA receptor; [3],123 nM
same,% survival,"NMDA-induced convulsions; 3 mg/kg, 30 min before NMDA 195 mg/kg i.p.",10%
"N[C@H](Cc1nc2ccc(Cl)cc2n1CP(=O)(O)O)C(=O)O [Example 7, R-α-Amino-6-chloro-1-(phosphonomethyl)-1H-benzimidazole-2-propanoic acid, 0.8 hydrochloride, hydrate]",IC50,NMDA receptor; [3],21.7 nM
same,ED50,NMDA-induced convulsions; [4],< 5 mg/kg
"Cl.N[C@H](Cc1nc2cc(Cl)ccc2n1CP(=O)(O)O)C(=O)O [Example 8, R-α-Amino-5-chloro-1-(phosphonomethyl)-1H-benzimidazole-2-propanoic acid hydrochloride]",IC50,NMDA receptor; [3],7 nM
same,ED50,NMDA-induced convulsions; read-out: ED50 (survival),0.13 mg/kg
"N[C@@H](Cc1nc2cc(Cl)c(Cl)cc2n1CP(=O)(O)O)C(=O)O [Example 9, S-α-Amino-5,6-dichloro-1-(phosphonomethyl)-1H-benzimidazole-2-propanoic acid, dihydrate]",IC50,NMDA receptor; [3],1010 nM
same,ED50,NMDA-induced convulsions; [4],> 10 mg/kg
"N[C@@H](CCC(=O)O)C(=O)O [L. Glutamic Acid, reference compound]",IC50,NMDA receptor; [1],64.3 ± 4.7 nM
"C[C@]12N[C@H](Cc3ccccc31)c1ccccc12 [MK-801, reference compound]",ED50,NMDA-induced convulsions; [2],0.19 mg/kg
